The numbers were not newly measured in patent US20090214716A1 (priority 2005, published 2009), which cites them from elsewhere.

For data set [1] the following is noted: caffeine 0.3 mg/kg/hr vs placebo.
Data set [2] has as its target T1, A2A receptors that are located on the platelet surface (Homo sapiens, UniProt P29274).
T1 construct: up-regulation of endogenous adenosine receptors in normal subjects; host or cells: human platelets of normal subjects (endogenous)
To be noted: chronic caffeine consumption.

Molecules are shown by their SMILES.

T1 sequence (P29274 whole entry): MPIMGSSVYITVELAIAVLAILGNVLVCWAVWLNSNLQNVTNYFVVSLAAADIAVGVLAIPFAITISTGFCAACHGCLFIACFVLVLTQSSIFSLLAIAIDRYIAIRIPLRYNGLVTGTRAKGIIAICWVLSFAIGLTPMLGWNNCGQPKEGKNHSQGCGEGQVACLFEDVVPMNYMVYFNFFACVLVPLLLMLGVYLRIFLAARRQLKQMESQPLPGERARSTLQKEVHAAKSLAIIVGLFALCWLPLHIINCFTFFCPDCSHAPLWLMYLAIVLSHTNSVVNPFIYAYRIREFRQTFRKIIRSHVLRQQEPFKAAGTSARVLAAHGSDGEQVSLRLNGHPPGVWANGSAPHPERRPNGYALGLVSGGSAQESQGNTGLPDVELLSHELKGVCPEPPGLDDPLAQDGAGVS

As for `Cn1c(=O)c2c(ncn2C)n(C)c1=O` [caffeine, 1,3,7-trimethylxanthine], in data set [1], the “performance on cognitive tests” value is listed as “performed better on cognitive tests” and the reported sleepiness result is recorded as “reported feeling sleepier than their placebo counterparts”. In data set [2], the platelet aggregability entry is recorded as “reduction in platelet aggregability”. Besides, the “effect on endogenous adenosine receptors” value in data set [2] (normal subjects) is listed as “sensitization and/or up-regulation of endogenous adenosine receptors”.
